Measured values taken from patent publication US20240109925A1, “Enhanced Anti-Proliferative and Antitumor Immune Effects of Mitochondria-Targeted Hydroxyurea” (The Medical College of Wisconsin, Inc., priority 2021, published 2024).
Like-named read-outs stand apart in the source and are kept apart here.

Tests used:
[1] = target: T1, mitochondrial complex III (Homo sapiens, UniProt P00156+P47985); assay: Complex III-dependent oxygen consumption (OCR), Seahorse XF-96, HCT116 cells; format: cell-based
T1 construct: other: mean ± SD; HCT116, 24 hr treatment; Complex III activity (OCR, % of control); other: 0.1 μM, 24 hr, HCT116; n = 4; other: 0.5 μM, 24 hr, HCT116; other: 0.75 μM, 24 hr, HCT116; other: 1 μM, 24 hr, HCT116; Compl
Procedure: FIG. 2. Effects of HU and Mito-HUs on the oxygen consumption by mitochondrial complexes I and III (A) Dose-dependent effects of HU, Mito10-HU, Mito12-HU, Mito14-HU, Mito16-HU, and Mito20-HU on complex I- and complex III-dependent oxygen consumption were measured in HCT116 cells. HCT116 cells were treated with HU or Mito-HUs as indicated for 24 hr. Mitochondrial complex I activity (left) and complex III activity (right) were monitored by a Seahorse XF-96 analyzer. Either rotenone (complex I inhibitor) or antimycin A (complex III inhibitor) was acutely added and OCR assayed immediately. (B) The mitochondrial complex I (left) and III (right) dependent oxygen consumption (calculated as rotenone or antimycin A inhibitable OCR) are plotted against concentration of HU and Mito-HUs. Dashed lines represent the fitting curves used for determination of the IC50 values. Data shown are the means G SD.
Mitochondrial oxygen consumption was measured using the Seahorse XF-96 Extracellular Flux Analyzer (Agilent, North Billerica, MA) (Cheng et al., 2013, 2016; Boyle et al., 2018; Weinberg and Chandel, 2015). After cells were treated with HU or Mito-HUs for 24 hr, the OCR-based assessment of mitochondrial complex activities was carried out on acutely permeabilized cells in the presence of different mitochondrial substrates, i.e., pyruvate/malate for complex I and duroquinol for complex III (Cheng et al., 2016, 2019; Salabei et al., 2014; Wheaton et al., 2014). Rotenone, malonate, and antimycin A (Sigma-Aldrich, St. Louis, MO) were used as specific inhibitors of mitochondrial complexes I, II, and III, respectively. Briefly, cells that were intact after treatments were immediately permeabilized using the Seahorse XF Plasma Membrane Permeabilizer (Agilent). The mitochondrial complex I-induced OCR was assayed in mannitol and sucrose buffer (Salabei et al., 2014) containing 10 mM pyruvate and 1.5 mM malate (substrates for complex I) and 10 mM malonate (which inhibits complex II activities). The mitochondrial complex III-driven OCR was assayed in a mannitol and sucrose buffer containing 0.5 mM duroquinol (substrate for complex III) as well as […] and 10 mM malonate (which inhibit both complex I and II activities). The IC50 values were determined as previously reported (Cheng et al., 2019).

suppressive neutrophils = assay: In vitro differentiation of MDSCs from bone marrow cells, flow cytometry; format: cell-based, mouse; conditions: for IC50: Mus musculus, Neutrophil, 72 h, read-out: IC50 Suppressive Neutrophils (FIG. 6); for effect on suppressive neutrophils: three days
Description: (§1) FIG. 5. In vitro differentiation of MDSCs and suppressive neutrophils in the presence of different concentrations of Mito14-HU and Mito-HUs with varying hydrophobicities (A) Scheme of differentiation of MDSCs. (B) Representative flow cytometry contour plots of in vitro differentiation of MDSCs under varying concentrations of Mito14-HU using FlowJo Software (FlowJo Software, 2019). (C) Summary data depicting distribution of MDSCs after three days treatment with Mito14-HU generated from panel (B). (D and E) (D) Dose-dependent effects of Mito-HUs with different side chain lengths on M-MDSC and (E) suppressive neutrophils. Dashed lines represent the fitting curves used for determination of the IC50 values. Data shown are the means & SD.
(§2) MDSCs were generated from bone marrow cells isolated from C57b1/6 mice and cultured at a density of 1 3 10^6 cells/ml in RPMI with 10% fetal bovine serum and 25 ng/ml recombinant mouse GM-CSF (Shenandoah Biotechnology, Inc.) and 25 ng/ml recombinant mouse IL-6 (Shenandoah Biotechnology, Inc.) for three days. Then, cells were re-cultured in fresh media with inhibitors for an additional three days. Cells were scraped and examined by flow cytometry using the following markers: FITC-anti Ly6C (Biolegend, San Diego, CA), PE-Cy7 anti F4/80 (Biolegend), APC-Cy7 anti Ly6G (Biolegend), and Pacific Blue anti-CD11b (Biolegend). A gating strategy similar to that employed for the T cells was used in all MDSC differentiation assays, which were tested only on live cells after treatments. Flow cytometry data were acquired using a BD Celesta flow cytometer (BD Biosciences), and data were analyzed using FlowJo software (Treestar, Inc.).

M-MDSC = assay: as above; format: cell-based, mouse; conditions: for IC50: Mus musculus, Bone marrow cell
Description: as §1, §2

[2] = mean ± SD; HCT116, 24 hr treatment; read-out: IC50 Complex III (FIG. 2)
[3] = 72 h, read-out: IC50 M-MDSC (FIG. 6)
[4] = read-out: IC50 frequency of M-MDSCs

SMILES | effect on complex III-induced oxygen consumption ([1]; HCT116, 24 hr) | IC50 [1, 2] [µM] | IC50 (suppressive neutrophils) [µM] | IC50 (M-MDSC; [3]) [µM] | IC50 (M-MDSC; [4]) [µM] | effect on suppressive neutrophils (suppressive neutrophils) | further results
NC(=O)NOCCCCCCCCCCCC[P+](c1ccccc1)(c1ccccc1)c1ccccc1.O=C([O-])C(F)(F)F [Mito12-HU, 12-[(carbamoylamino)oxy]-dodecyltriphenylphosphonium trifluoroacetate] | potently inhibited | 3.1 ± 0.18 | > 4 | 2.6 ± 0.11 | 2.6 |  | 
NC(=O)NOCCCCCCCCCCCCCCCCCCCC[P+](c1ccccc1)(c1ccccc1)c1ccccc1.O=C([O-])C(F)(F)F [Mito20-HU, 20-[(carbamoylamino)oxy]-eicosanyltriphenylphosphonium trifluoroacetate] |  | 4.2 ± 0.4 | > 1 | 0.44 ± 0.09 | 0.44 |  | 
NC(=O)NOCCCCCCCCCC[P+](c1ccccc1)(c1ccccc1)c1ccccc1.O=C([O-])C(F)(F)F [Mito10-HU, 10-[(carbamoylamino)oxy]-decyltriphenylphosphonium trifluoroacetate] | potently inhibited | 21 ± 0.72 | > 20 | 9.6 ± 0.39 | 9.6 |  | 
NC(=O)NOCCCCCCCCCCCCCC[P+](c1ccccc1)(c1ccccc1)c1ccccc1.O=C([O-])C(F)(F)F [Mito14-HU, 14-[(carbamoylamino)oxy]-tetradecyltriphenylphosphonium trifluoroacetate] | potently inhibited | 1.7 ± 0.69 | 0.94 ± 0.99 | 0.89 ± 0.1 | 0.89 | dose-dependently inhibited | effect on M-MDSC (M-MDSC; three days): dose-dependently inhibited
NC(=O)NO [HU, Hydroxyurea] | no apparent effects |  |  |  |  |  | remaining activity at 10 µM ([1]; HCT-116; 10 μM, 24 hr, HCT116; n = 4; read-out: Complex III activity (OCR, % of control)): 94.1%; remaining activity at 30 µM ([1]; HCT-116; 30 μM, 24 hr, HCT116; n = 4; read-out: Complex III activity (OCR, % of control)): 81.2%; remaining activity at 100 µM ([1]; HCT-116; 100 μM, 24 hr, HCT116; n = 4; read-out: Complex III activity (OCR, % of control)): 94.6%; remaining activity at 150 µM ([1]; HCT-116; 150 μM, 24 hr, HCT116; n = 4; read-out: Complex III activity (OCR, % of control)): 92.2%; remaining activity at 200 µM ([1]; HCT-116; 200 μM, 24 hr, HCT116; n = 4; read-out: Complex III activity (OCR, % of control)): 82.7%; remaining activity at 250 µM ([1]; HCT-116; 250 μM, 24 hr, HCT116; n = 4; read-out: Complex III activity (OCR, % of control)): 89.1%; remaining activity at 300 µM ([1]; HCT-116; 300 μM, 24 hr, HCT116; n = 4; read-out: Complex III activity (OCR, % of control)): 88.7%; remaining activity at 400 µM ([1]; HCT-116; 400 μM, 24 hr, HCT116; n = 4; read-out: Complex III activity (OCR, % of control)): 86.8%; remaining activity at 500 µM ([1]; HCT-116; 500 μM, 24 hr, HCT116; n = 4; read-out: Complex III activity (OCR, % of control)): 88.9%; remaining activity at 1000 µM ([1]; HCT-116; 1000 μM, 24 hr, HCT116; n = 4; read-out: Complex III activity (OCR, % of control)): 93.1%; remaining activity at 3000 µM ([1]; HCT-116; 3000 μM, 24 hr, HCT116; n = 4; read-out: Complex III activity (OCR, % of control)): 94.4%; IC50 ([1]; read-out: IC50 Complex III (FIG. 2); mean ± SD; HCT116, 24 hr treatment): > 3000 µM; IC50 (suppressive neutrophils; mean ± SD, three days treatment): 18 ± 1.9 µM; IC50 (M-MDSC; 72 h, mean ± SD, three days treatment, read-out: IC50 M-MDSC (FIG. 6)): 84 ± 2.8 µM
NC(=O)NOCCCCCCCCCCCCCCCC[P+](c1ccccc1)(c1ccccc1)c1ccccc1.O=C([O-])C(F)(F)F [Mito16-HU, 16-[(carbamoylamino)oxy]-hexadecyltriphenylphosphonium trifluoroacetate] | potently inhibited | 2.6 ± 0.39 | 0.56 ± 0.12 | 0.44 ± 0.11 | 0.44 | greater inhibitory effects | 
